From ChEMBL document CHEMBL1142006, “Chemistry and biology of mercaptoacetamides as novel histone deacetylase inhibitors” (Bioorg Med Chem Lett, 2005) come the findings set out here.

One assay concerns MCF7. Kind of assay: Antiproliferative activity against MCF-7 cancer cell line. The assay is classed as functional, cell-based. Conditions: Homo sapiens.
In the next assay the test system is PC-3. Briefly: Antiproliferative activity against PC-3 cancer cells. In kind it is functional, cell-based. The settings on record: Homo sapiens.
Another assay is filed under the species Homo sapiens. Kind of assay: Antiproliferative activity against SQ-20B cancer cells. The assay is classed as functional. Conditions: Cancer cell lines.
The subject of another assay is HeLa. Briefly: Antiproliferative activity towards human HeLa cancer cells. The assay is classed as functional, cell-based.

As a reminder, the IC50 is the concentration needed to halve the response being measured.

In the case of `O=C(CS)NCCCCCC(=O)Nc1cnc2ccccc2c1`, the values for the 50% inhibitory concentration (IC50) in the assay on MCF7, with PC-3 and in the assay filed under Homo sapiens were 80 µM, 50 µM and 100 µM, respectively.
Turning to `CN(C)c1ccc(C(=O)NCCCCCNC(=O)CS)cc1`, the IC50 in the assay on MCF7 was found to be 125 µM; with PC-3, 110 µM; in the assay filed under Homo sapiens, 100 µM; with HeLa, 108 µM.
Consider `O=C(CS)NCCCCCNC(=O)c1ccc(-c2ccccc2)cc1`, for which the IC50 in the assay on PC-3 was 100 µM; in the assay filed under Homo sapiens it was 130 µM; with HeLa it was 80 µM.
Regarding `O=C(CS)NCCCCCC(=O)Nc1cccc2cccnc12`, the IC50 in the assay on MCF7 was determined as 42 µM; in the assay on PC-3, 33 µM; in the assay filed under Homo sapiens, 31 µM; in the assay on HeLa, 30 µM.
